Paper PMC3164098, “C-Terminal Substitution of MDM2 Interacting Peptides Modulates Binding Affinity by Distinctive Mechanisms” (PLoS ONE, 2011)
Ends that are not written are not given here.

Columns and labels:
[1] = molecular target: T1, hexahistidine tagged MDM2 (18–125) (Homo sapiens, UniProt Q00987); assay: Isothermal titration calorimetry (ITC) of ligands against MDM2; assay type: binding; details: PBS pH 7.4, 0.05% TWEEN20, 1% DMSO; for Kd: 10 or 20 µM MDM2 in cell
T1 construct: DNA encoding residues Q18 to N125 of HDM2; made in house; host or cells: E. coli BL21(DE3)
T1 sequence (Q00987 18-125): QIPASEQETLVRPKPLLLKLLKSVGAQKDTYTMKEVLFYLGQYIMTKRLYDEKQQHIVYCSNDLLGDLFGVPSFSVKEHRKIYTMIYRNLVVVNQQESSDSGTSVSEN
Protocol: DNA encoding residues Q18 to N125 of HDM2 were cloned as a NdeI/BamHI fragment into pET19b (Novagen). Recombinant clones carrying the correct insert were identified by DNA sequencing. Plasmid from the identified clone was introduced into E. coli BL21(DE3) and protein production in LB medium was induced with IPTG (1 mM) when the cell density reached OD600 between 0.4 and 0.6. Induced cells were grown at room temperature for 5 h, harvested, and then resuspended in buffer A (50 mM Tris pH 8.0, 10% sucrose). After cell disruption and centrifugation, supernatant was loaded onto a Ni-nitrilotriacetic acid (NTA) column and washed with 5 column volumes of 0.3 M NaCl, 50 mM Tris-HCl pH 8.0, 1 mM DTT. […] The protein was further purified by cation-exchange chromatography (Pharmacia Mono S 5/5, 1 ml/min, 50 mM Tris-HCl pH 7.0, 1 mM DTT) with a 1 M NaCl gradient.
ITC experiments were conducted in a VP-ITC Unit (MicroCal, Northampton, MA). […] All titrations were carried out in 1% DMSO. […] All peptides used were weighed out as solids and dissolved in DMSO. The stock peptide solutions were diluted to their working concentrations in the buffer used for dialysis of the protein. DMSO was carefully added to the MDM2 solution in the VP-ITC cell to buffer match it to the peptide solution. The titration experiments were performed at 20°C with an initial 2 µl injection with duration of 4 s, followed by 28 10 µl injections with a duration of 7.1 s. The spacing between each injection was 150 s. The stirring speed during the titration was 290 rpm. Data was analyzed using Microcal Origin software by fitting to a single-site binding model. Correction for the enthalpy of ligand dilution was carried out by subtracting a linear fit from the last three data points of the titration, after the interaction had reached saturation.

[2] = tested on: N-terminal domain of MDM2; details: peptide of residues 12–30 of WT p53, binding to N-terminal domain of MDM2; ref 10 (Zondlo et al.); cited from earlier work
Excerpt: The molecular interaction of the binding of the MDM2 N-terminal domain to the p53 N-terminus (TA domain) is well understood. Several high-resolution crystal and NMR structures in complex with a variety of peptides and small molecules have been elucidated, [8]. These structural studies indicate that the residues F19, W23 and L26 of the TA domain of p53 are critical for binding to MDM2. Indeed most peptides, peptidomimetics and small molecules that have been developed have indeed emerged as a result of mimicking these interactions. However, it has been known for some time that the other ...

[3] = 293 K (20°C), single-site binding model

Row | Molecule | Kd [1, 3] [nM] | other results
1 | CSCC[C@H](NC(=O)[C@H](Cc1ccccc1)NC(=O)[C@H](CCCNC(=N)N)NC(=O)[C@@H]1CCCN1C(=O)[C@@H](N)CCSC)C(=O)N[C@@H](CC(=O)O)C(=O)N[C@@H](Cc1ccc(O)cc1)C(=O)N[C@@H](Cc1c[nH]c2ccccc12)C(=O)N[C@@H](CCC(=O)O)C(=O)NCC(=O)N[C@@H](CC(C)C)C(=O)N[C@@H](CO)C(N)=O [12/1Ser] | 18.8 ± 5.03 | 
2 | CC(C)C[C@H](NC(=O)[C@H](CC(C)C)NC(=O)[C@H](CCCCN)NC(=O)[C@H](Cc1c[nH]c2ccccc12)NC(=O)[C@H](CC(C)C)NC(=O)[C@H](CC(=O)O)NC(=O)[C@H](CO)NC(=O)[C@H](Cc1ccccc1)NC(=O)[C@@H](NC(=O)[C@H](CCC(=O)O)NC(=O)[C@@H](N)CCC(N)=O)[C@@H](C)O)C(=O)N[C@@H](CC(N)=O)C(N)=O [P53 Asn] | 168 ± 9.24 | 
3 | CC(C)C[C@H](NC(=O)[C@H](CC(C)C)NC(=O)[C@H](CCCCN)NC(=O)[C@H](Cc1c[nH]c2ccccc12)NC(=O)[C@H](CC(C)C)NC(=O)[C@H](CC(=O)O)NC(=O)[C@H](CO)NC(=O)[C@H](Cc1ccccc1)NC(=O)[C@@H](NC(=O)[C@H](CCC(=O)O)NC(=O)[C@@H](N)CCC(N)=O)[C@@H](C)O)C(=O)N[C@@H](C)C(N)=O [p53 Ala] | 112 ± 17.9 | 
4 | CC(C)C[C@H](NC(=O)[C@H](CC(C)C)NC(=O)[C@H](CCCCN)NC(=O)[C@H](Cc1c[nH]c2ccccc12)NC(=O)[C@H](CC(C)C)NC(=O)[C@H](CC(=O)O)NC(=O)[C@H](CO)NC(=O)[C@H](Cc1ccccc1)NC(=O)[C@@H](NC(=O)[C@H](CCC(=O)O)NC(=O)[C@@H](N)CCC(N)=O)[C@@H](C)O)C(=O)N[C@@H](CO)C(N)=O [p53 Ser] | 75.8 ± 10.4 | 
5 | CC(C)C[C@H](NC(=O)[C@H](CC(=O)O)NC(=O)[C@H](CO)NC(=O)[C@H](Cc1ccccc1)NC(=O)[C@@H](NC(=O)[C@H](CCC(=O)O)NC(=O)[C@@H](N)CCC(N)=O)[C@@H](C)O)C(=O)N[C@@H](Cc1c[nH]c2ccccc12)C(=O)N[C@@H](CCCCN)C(=O)N[C@@H](CC(C)C)C(=O)N[C@@H](CC(C)C)C(=O)N[C@H](C(N)=O)[C@@H](C)O [p53Thr] | 38.8 ± 7.43 | 
6 | MPRFMDYWEGLA-NH2 [12/1Ala] | 47.2 ± 11.1 | 
7 | MPRFMDYWEGLN-NH2 [12/1] | 240 ± 53.8 | 
8 | MPRFMDYWEGLP-NH2 [12/1Pro] | 213 ± 36.6 | 
9 | MPRFMDYWEGLT-NH2 [12/1Thr] | 22.9 ± 4.21 | 
10 | Nutlin [Nutlin Racemic, reference compound] |  | ΔG ([1]; binding free energy calculated from the Kd using ΔG = −RTlnKa, 293 K): -8.97 ± 0.15 kcal/mol; ΔH ([1]; enthalpy of binding, 293 K (20°C), single-site binding model): -6.10 ± 0.16 kcal/mol; TΔS ([1]; entropy of binding, 293 K (20°C)): 2.88 kcal/mol
11 | P27S: P27S substitution in a peptide corresponding to residues 12–30 of the WT p53 sequence (Zondlo et al.) (PPLSQETFSDLWKLLSENN; not fully specified (C-terminus); UniProt P04637 12-30, looked up, variant P27S) |  | fold improvement in Kd over the wild type sequence [2]: ~200 fold
